The record followed here is patent US9456973B2, “Methionyl-methionine stereoisomers and use thereof in cosmetics” (EVONIK DEGUSSA GMBH, priority 2013, dated 2016).

Common to all, as to set-up: species or system human
Assay [1] is described as follows: Hair fatigue breakage of bleached hair, Dia-stron Automatic Cyclic Tester (CYC800), Weibull analysis. The settings on record: simple hair conditioner (Table 3), 2.0%; Constant Stress method; vehicle 14 190 cycles; FIG. 8. The procedure: A tress section of human Euro-Natural hair, remis, double-drawn with a length of 23 cm and a width of 2.0 cm with a weight of 2.0 g and dark-brown color was wetted under a tap of running water over the course of 10 seconds. 8 g of a 30% strength aqueous hydrogen peroxide solution were mixed with 4 g of Basler Blond Claire bleaching powder, 2 mL of a 25% strength aqueous ammonia solution were added, and combined again and 8 g of the resulting paste were massaged into the tress section with the help of a comb and the protected hands. […]
Afterwards, per treatment method 40 hairs were removed from the tress section and in each case the middle section of a hair with a length of 3 cm was crimped between two brass sleeves with plastic coating on the inside. The average area of each individual hair was measured using a Dia-stron FDAS760 fibre dimensional system and UvWin PC application software. […]
In order to measure the hair fatigue breakage, the hair samples were transferred to the sample cassette of a Dia-stron Automatic Cyclic Tester (CYC800) and climatized at 22° C. and 50-55% rel. atmospheric humidity. […] The characteristic life span a of a hair fibre is calculated by means of Weibull analysis. […]

Assay [2] can be described thus: Repair of bleached hair: tensile elongation forces by Dia-stron Tensile Tester MTT 670. The procedure:
A tress section of human Euro-Natural hair, remis, double-drawn with a length of 23 cm and a width of 2.0 cm with a weight of 2.0 g and dark-brown color was wetted under a tap of running water over the course of 10 seconds. 8 g of a 30% strength aqueous hydrogen peroxide solution were mixed with 4 g of Basler Blond Claire bleaching powder, 2 mL of a 25% strength aqueous ammonia solution were added, and combined again and 8 g of the resulting paste were massaged into the tress section with the help of a comb and the protected hands. After a contact time of 30 minutes at room temperature, the tress section was washed for 2 minutes under running tap water at ca. 35° C. and then dried by means of an electronic hair dryer for 3 minutes while combing at the same time. The entire procedure was repeated once starting from the wetting of the tress section.
(§1) Afterwards, per treatment method 40 hairs were removed from the tress section and in each case the middle section of a hair with a length of 3 cm was crimped between two brass sleeves with plastic coating on the inside. The average area of each individual hair was measured using a Dia-stron FDAS760 fibre dimensional system and UvWin PC application software. The hair samples were then transferred to the sample cassette of a Dia-stron Tensile Tester MTT 670 and admixed in each case with demineralized water adjusted to pH 7 using citric acid. A measurement of the individual hair strands with the Single Fiber Method (Extension 20%, Rate 20 mm/min, Gauge Force 2, Maximum Force 200, Break Threshold 5, Sample Size 30 mm) was started. The hair samples were then removed from the sample cassette and covered with demineralized water in a plastic bowl.
For the treatment with hair conditioner, the water was removed after 30 minutes and the hair samples were covered with hair conditioner. After a contact time of 30 minutes, each individual hair sample was washed under a stream of running water at ca. 35° C. for 6 seconds. The hair samples were dried overnight at 22° C. and 50% relative atmospheric humidity.
For the treatment with shampoo, the water was removed after 30 minutes and the hair samples were covered with shampoo. After a contact time of 5 minutes, each individual hair sample was washed under a stream of running water at ca. 35° C. for 6 seconds. The hair samples were briefly dried by means of an electronic hair dryer and the shampoo treatment was repeated four times.
After the particular treatment, the measurement of the individual hair samples starting with the transfer to the sample cassette of the Dia-stron Tensile Tester MTT 670 was repeated.
The evaluation of the data takes place by reference to the parameters modulus of elasticity (E modulus), Load and/or Work. If a hair is pulled, the elongation is initially proportional to the applied force (Hooke's range). The modulus of elasticity describes the applied force per elongation (in Newton/mm^2) in the Hooke's range and therefore represents the tensile strength of a hair fibre. As soon as the hair has been elongated to a length of approximately 2%, it further deforms very rapidly up to ca. 25-30% of its original length, where the increase in the force required for this is minimal (Yield range). The parameter Load corresponds to the force (in Newtons) which is required to elongate the hair up to 15% and the parameter Work indicates the work required to elongate the hair from 0-15% (in Joules).

A short description of assay [3]: Protection of hair against thermal stress (smoothing iron): hair fatigue breakage, Automatic Cyclic Tester. The conditions noted are these: FIG. 11. The procedure: A tress section of human Euro-Natural hair, remis, double-drawn with a length of 23 cm and a width of 2.0 cm with a weight of 2.0 g and dark-brown color was wetted under a tap of running water over the course of 10 seconds. Then, 2 mL of shampoo (28.6% Texapon NSO in dist. water) were massaged into the hair for 30 seconds, washed out for a further 30 seconds under running tap water at ca. 35° C., and the hair tress was squeezed between two fingers and combed six times. The hair tress was dipped for 1 minute in 300 mL of active ingredient solution (active ingredient, demin. water, lactic acid, pH 5.5), squeezed between two fingers and rinsed for 30 seconds under running tap water at ca. 35° C. and combed. […]
Afterwards, 50 hairs were removed from the tress section and in each case the middle section of a hair with a length of 3 cm was crimped between two brass sleeves with plastic coating on the inside. The average area of each individual hair was measured using a Dia-stron FDAS760 fibre dimensional system and UvWin PC application software.
The hair samples were then transferred to the sample cassette of a Dia-stron Automatic Cyclic Tester (CYC800) and climatized at 22° C. and 50-55% rel. atmospheric humidity. […] The probability of survival and the characteristic life span a of a hair fibre were calculated by means of Weibull analysis.

Assay [4] in a line: Repair of alkaline smoothed hair: tensile elongation forces by Tensile Tester. The conditions noted are these: simple hair conditioner (Table 8); 0.5% DD/LL 1:1, 0.5% L-methionine or 2.0% wheat protein (25% active); vehicle 0.43 mN; FIG. 9. The procedure: as §1
(§2) For the treatment with hair conditioner, the water was removed after 30 minutes and the hair samples were covered with hair conditioner. After a contact time of 30 minutes, each individual hair sample was washed under a stream of running water at ca. 35° C. for 6 seconds. The hair samples were dried overnight at 22° C. and 50% relative atmospheric humidity. […]
(§3) Afterwards, 40 hairs were removed from the tress section and measured as described in Example 1. […]

Assay [5] can be described thus: Protection of hair against thermal stress (smoothing iron): denaturation temperature by differential scanning calorimetry. The settings on record: preventative treatment with active ingredient solution pH 5.5; vehicle 137.9° C.; FIG. 12. The procedure:
A tress section of human Euro-Natural hair, remis, double-drawn with a length of 23 cm and a width of 2.0 cm with a weight of 2.0 g and dark-brown color was wetted under a tap of running water over the course of 10 seconds. Then, 2 mL of shampoo (28.6% Texapon NSO in dist. water) were massaged into the hair for 30 seconds, washed out for a further 30 seconds under running tap water at ca. 35° C., and the hair tress was squeezed between two fingers and combed six times. The hair tress was dipped for 1 minute in 300 mL of active ingredient solution (active ingredient, demin. water, lactic acid, pH 5.5), squeezed between two fingers and rinsed for 30 seconds under running tap water at ca. 35° C. and combed. The hair was dried using an electronic hair dryer for 3 minutes with simultaneous combing and then stored overnight in a climatically controlled chamber (37° C., 50% rel. atmospheric humidity).
The tress section was drawn four times in each case for 30 seconds through a smoothing iron (˜210° C.), which was pressed onto the tress by means of a 630 g weight. This treatment was repeated a total of five times from the wetting of the hair and shampoo treatment (in total 20 draws through the smoothing iron). […]
For orientation: Differential scanning calorimetry records heat flow against a reference as temperature is scanned.

Assay [6] can be described thus: Repair of reductively smoothed hair: tensile elongation forces by Tensile Tester. The conditions noted are these: simple hair conditioner (Table 9); 0.5% DD/LL 1:1 or 2.0% wheat protein (25% active); FIG. 10. The procedure:
as §1, §2, §3

Turning to `CSCCC(N)C(=O)NC(CCSC)C(=O)O` (racemic) [DD/LL/LD/DL-methionyl-methionine], in assay [1], the “characteristic life span α: number of cycles in which 63.2% of all hair fibres tear” value is reported as 33 980 cycles. Also, the “improvement of Load at 15% elongation (Load 15%)” value in assay [2] (expanded hair conditioner (Table 4), 1.0% DD/LL/LD/DL 35:35:65:65 or 4.0% wheat protein (25% active), vehicle 1.28 mN, FIG. 5) turned out to be 4.85 mN; in assay [2] (shampoo (Table 5), 1.00% DD/LL/LD/DL 35:35:65:65, contact 5 minutes, five treatments, vehicle 0.46 mN, FIG. 7) it was 1.33 mN; in assay [2] (simple hair conditioner (Table 3), 2.0% active, DD/LL/LD/DL = 1:1:1:1, contact 30 minutes, vehicle 2.65 mN, FIG. 3), 4.14 mN. The “improvement of Work up to 15% elongation (Work 15%)” value in assay [2] (expanded hair conditioner (Table 4), 1.0% DD/LL/LD/DL 35:35:65:65 or 4.0% wheat protein (25% active), vehicle 3.51 μJ, FIG. 6) turned out to be 18.2 µJ; in assay [2] (shampoo (Table 5), 1.00% DD/LL/LD/DL 35:35:65:65, contact 5 minutes, five treatments, vehicle 2.46 μJ), 2.58 µJ; in assay [2] (simple hair conditioner (Table 3), 2.0% active, DD/LL/LD/DL = 1:1:1:1, contact 30 minutes, vehicle 11.0 μJ, FIG. 4), 19.4 µJ.

Turning to `CSCCC(N)C(=O)NC(CCSC)C(=O)O` (centres unmarked) [DD/LL-methionyl-methionine], in assay [3] (preventative treatment with active ingredient solution pH 5.5, DD/LL weight ratio 1:1, vehicle 5500), the “number of cycles at which 20% of the hair remain intact” value is recorded as 10 000 cycles. In addition, in assay [3] (preventative treatment with active ingredient solution pH 5.5, vehicle 8000), the “number of cycles at which 10% of the hair did not tear” value was 22 000 cycles. Besides, the “improvement of Load at 15% elongation (Load 15%)” value in assay [4] was found to be 3.76 mN. Further, the “hair denaturation temperature (TD)” value in assay [5] was 139.9 °C. In assay [6], the “improvement of Load at 15% elongation (Load 15%) relative to vehicle” value is given as 0.96 mN.

As for `CSCC[C@H](N)C(=O)O` [L-methionine], in assay [4], the “improvement of Load at 15% elongation (Load 15%)” value worked out at 2.73 mN. For the same compound, the “repair effect (Load 15%, Work 15%) compared with vehicle hair conditioner, in words” value in assay [2] (simple hair conditioner (Table 3), 2.0% raw material, FIGS. 3 and 4) is listed as “could be further increased neither”.
